Counter-ions that a name gives are not always drawn. Like-named read-outs stand apart in the source and are kept apart here.
What was measured:
[1] = test system: MDA-MB-231 (Mammary Gland, Adenocarcinoma); assay: Cell viability analysis, breast cancer MDA-MB-231; format: cell-based, human; settings: Homo sapiens, MDA-MB-231, 72 h; MDA-MB231; repeated experiment; read-out: The results of antibiotic drug inhibiting cancer cell lines (cell viability analysis), MDA-MB231
[2] = test system: HepG2 (Hepatocellular Carcinoma); assay: Cell viability analysis, hepatic cancer HepG2; format: cell-based, human; settings: Homo sapiens, HepG2, 72 h
T24 = assay: Cell viability analysis, bladder cancer T24; format: cell-based, human; settings: Homo sapiens, T-24, 72 h; T24; repeated experiment; read-out: The results of antibiotic drug inhibiting cancer cell lines (cell viability analysis), T24
[3] = test system: SAS (Tongue squamous cell carcinoma); assay: Cell viability analysis, tongue cancer SAS; format: cell-based, human; settings: Homo sapiens, 72 h; SAS; repeated experiment; read-out: The results of antibiotic drug inhibiting cancer cell lines (cell viability analysis), SAS
TOV-21G = assay: Cell viability analysis, ovarian cancer TOV-21G; format: cell-based, human; settings: Homo sapiens, TOV21G, 72 h; TOV-21G; repeated experiment; read-out: The results of antibiotic drug inhibiting cancer cell lines (cell viability analysis), TOV-21G
AsPC-1 = assay: Cell viability analysis, pancreatic cancer AsPC-1; format: cell-based, human; settings: Homo sapiens, ASPC1, 72 h; AsPC-1; repeated experiment; read-out: The results of antibiotic drug inhibiting cancer cell lines (cell viability analysis), AsPC-1
NIH: OVCAR-3 = assay: Cell viability analysis, ovarian cancer NIH: OVCAR-3; format: cell-based, human; settings: Homo sapiens, 72 h; NIH-OVCAR-3; repeated experiment; read-out: The results of antibiotic drug inhibiting cancer cell lines (cell viability analysis), NIH-OVCAR-3
[4] = test system: LoVo (Colorectal Adenocarcinoma); assay: Cell viability analysis, colon cancer LoVo; format: cell-based, human; settings: Homo sapiens, LoVo, 72 h
[5] = test system: HCT116 (p53+) (Colorectal Carcinoma)
[6] = test system: Hep3B (hepatocellular carcinoma); assay: Cell viability analysis, hepatic cancer Hep3B; format: cell-based, human; settings: Homo sapiens, 72 h; Hep3B; repeated experiment; read-out: The results of antibiotic drug inhibiting cancer cell lines (cell viability analysis), Hep3B
[7] = test system: A375 (Amelanotic Melanoma); assay: Cell viability analysis, skin cancer A375; format: cell-based, human; settings: Homo sapiens, A-375, 72 h
[8] = test system: HI650 (Lung Adenocarcinoma); assay: Cell viability analysis, lung cancer HI650; format: cell-based, human; settings: Homo sapiens, NCI-H1650, 72 h
[9] = test system: HeLa (Cervix Adenocarcinoma); assay: Cell viability analysis, cervical cancer HeLa; format: cell-based, human; settings: Homo sapiens, HeLa, 72 h, HeLa
BxPC-3 = assay: Cell viability analysis, pancreatic cancer BxPC-3; format: cell-based, human; settings: Homo sapiens, 72 h; BxPC-3; repeated experiment; read-out: The results of antibiotic drug inhibiting cancer cell lines (cell viability analysis), BxPC-3
[10] = test system: 786-O (Renal adenocarcinoma); assay: Cell viability analysis, renal cancer 786-O; format: cell-based, human; settings: Homo sapiens, 786-0, 72 h; 786-O; repeated experiment; read-out: The results of antibiotic drug inhibiting cancer cell lines (cell viability analysis), 786-O
[11] = test system: A549 (Lung Adenocarcinoma); assay: Cell viability analysis, lung cancer A549; format: cell-based, human; settings: Homo sapiens, A549, 72 h
[12] = test system: MCF7 (Mammary Gland, Adenocarcinoma); assay: Cell viability analysis, breast cancer MCF7; format: cell-based, human; settings: Homo sapiens, MCF7, 72 h
[13] = test system: AGS (Gastric Adenocarcinoma); assay: Cell viability analysis, gastric cancer AGS; format: cell-based, human; settings: Homo sapiens, 72 h
[14] = test system: BCC (basal cell carcinoma); assay: Cell viability analysis, skin cancer BCC; format: cell-based, human; settings: Homo sapiens, 72 h; BCC; repeated experiment; read-out: The results of antibiotic drug inhibiting cancer cell lines (cell viability analysis), BCC
[15] = test system: C-33A (Cervical carcinoma); assay: Cell viability analysis, cervical cancer C-33A; format: cell-based, human; settings: Homo sapiens, 72 h; C-33A; repeated experiment; read-out: The results of antibiotic drug inhibiting cancer cell lines (cell viability analysis), C-33A
[16] = test system: MKN-45 (Gastric Adenocarcinoma); assay: Cell viability analysis, gastric cancer MKN-45; format: cell-based, human; settings: Homo sapiens, MKN-45, 72 h
U-2OS = assay: Cell viability analysis, osteosarcoma U-2OS; format: cell-based, human; settings: Homo sapiens, 72 h; U2OS; repeated experiment; read-out: The results of antibiotic drug inhibiting cancer cell lines (cell viability analysis), U2OS
[17] = test system: HL-60 (Acute Promyelocytic Leukemia); assay: Cell viability analysis, leukemia HL-60; format: cell-based, human; settings: Homo sapiens, HL-60, 72 h, drug 10 μM, 72 hours, WST-1, OD450 nm; read-out: cell viability (survival rate), HL-60
cancer cell lines = assay: Cell viability analysis (WST-1) on cancer cell lines; format: cell-based, human; settings: drug 10 μM, 72 hours, WST-1; Table 3
[18] = test system: PC3 (p53−) (Prostate Adenocarcinoma); assay: Cell viability analysis, prostate cancer PC3; format: cell-based, human; settings: Homo sapiens, 72 h

SMILES: CCc1cc2c(cc1CC)CC(NC[C@H](O)c1ccc(O)c3[nH]c(=O)ccc13)C2 [Indacaterol Maleate]
- viability at 10 µM [1]: 103%
- viability at 10 µM ([2]; HepG2, repeated experiment, read-out: The results of antibiotic drug inhibiting cancer cell lines (cell viability analysis), HepG2): 84.4%
- viability at 10 µM ([2]; drug 10 μM, 72 hours, WST-1, OD450 nm, read-out: cell viability (survival rate), HepG2): 81.2%
- viability at 10 µM (T24): 122%
- viability at 10 µM [3]: 61.7%
- viability at 10 µM (TOV-21G): 95.3%
- viability at 10 µM (AsPC-1): 85.4%
- viability at 10 µM (NIH: OVCAR-3): 79.3%
- viability at 10 µM ([4]; read-out: The results of antibiotic drug inhibiting cancer cell lines (cell viability analysis), LoVo, repeated experiment): 79.1%
- viability at 10 µM ([4]; read-out: cell viability (survival rate), LoVo, drug 10 μM, 72 hours, WST-1, OD450 nm): 61.4%
- viability [5]: 91.9%
- viability at 10 µM [6]: 97.6%
- viability at 10 µM ([7]; A375, repeated experiment, read-out: The results of antibiotic drug inhibiting cancer cell lines (cell viability analysis), A375): 87.2%
- viability at 10 µM ([7]; drug 10 μM, 72 hours, WST-1, OD450 nm, read-out: cell viability (survival rate), A375): 45.7%
- viability at 10 µM ([8]; H1650, repeated experiment, read-out: The results of antibiotic drug inhibiting cancer cell lines (cell viability analysis), H1650): 86.6%
- viability at 10 µM ([8]; drug 10 μM, 72 hours, WST-1, OD450 nm, read-out: cell viability (survival rate), H1650): 36%
- viability at 10 µM ([9]; repeated experiment, read-out: The results of antibiotic drug inhibiting cancer cell lines (cell viability analysis), HeLa): 96.6%
- viability at 10 µM ([9]; drug 10 μM, 72 hours, WST-1, OD450 nm, read-out: cell viability (survival rate), HeLa): 71.8%
- viability at 10 µM (BxPC-3): 91.4%
- viability at 10 µM [10]: 82.6%
- viability at 10 µM ([11]; A549, repeated experiment, read-out: The results of antibiotic drug inhibiting cancer cell lines (cell viability analysis), A549): 79.6%
- viability at 10 µM ([11]; drug 10 μM, 72 hours, WST-1, OD450 nm, read-out: cell viability (survival rate), A549): 65.1%
- viability at 10 µM ([12]; MCF-7, repeated experiment, read-out: The results of antibiotic drug inhibiting cancer cell lines (cell viability analysis), MCF-7): 72.5%
- viability at 10 µM ([12]; drug 10 μM, 72 hours, WST-1, OD450 nm, read-out: cell viability (survival rate), MCF7): 68.7%
- viability at 10 µM ([13]; AGS, repeated experiment, read-out: The results of antibiotic drug inhibiting cancer cell lines (cell viability analysis), AGS): 50.2%
- viability at 10 µM ([13]; drug 10 μM, 72 hours, WST-1, OD450 nm, read-out: cell viability (survival rate), AGS): 54.1%
- viability at 10 µM [14]: 82.1%
- viability at 10 µM [15]: 94.3%
- viability at 10 µM ([16]; MKN-45, repeated experiment, read-out: The results of antibiotic drug inhibiting cancer cell lines (cell viability analysis), MKN-45): 84.5%
- viability at 10 µM ([16]; drug 10 μM, 72 hours, WST-1, OD450 nm, read-out: cell viability (survival rate), MKN-45): 30.3%
- viability at 10 µM (U-2OS): 62.6%
- viability at 10 µM [17]: 87.2%
- inhibition effect on different cancer cell lines (cancer cell lines): significant inhibition effect
- viability at 10 µM ([18]; PC-3, repeated experiment, read-out: The results of antibiotic drug inhibiting cancer cell lines (cell viability analysis), PC-3): 100%
- viability at 10 µM ([18]; drug 10 μM, 72 hours, WST-1, OD450 nm, read-out: cell viability (survival rate), PC3): 55.5%

Reference: patent US10105357B2, “Indication of antibiotic drugs for preparation of cancer inhibition pharmaceutical composition” (LAUNX BIOMEDICAL CO., LTD., priority 2014, dated 2018)
